Assay results from patent US20120009183A1, “METHOD FOR TREATMENT OF PANCREATITIS” (Ore Pharmaceuticals Inc., priority 2007, published 2012).

What was measured:
[1] = test system: NF-κB dependent transcription; assay: TNFα-induced activation of NF-κB in recombinant HeLa reporter cells (luciferase); type: cell-based; details: TNFα 20 ng/ml, 6 hours, HeLa NF-κB-luc
From the text: To test the ACE2 inhibitor GL1001 for anti-inflammatory activity relevant to gastrointestinal inflammatory disease, more particularly pancreatitis, effects of the compound on activation of NF-κB dependent transcription by TNFα were examined in recombinant reporter cells containing a construct with a luciferase reporter gene under control of NF-κB dependent regulatory sequences, thereby allowing detection of NF-κB dependent transcription by measuring reporter enzyme using a conventional luciferase activity assay based on detection of generated light.
In particular, HeLa cells (American Type Culture Collection) were grown in Dulbecco's modified Eagles medium (DMEM) supplemented with 10% fetal calf serum and transiently transfected with an NF-κB-luc construct (Stratagene, Inc.), as follows (with all incubation steps at 37 C unless otherwise indicated). Cells were seeded and grown to about 70% confluency in a 10 cm cell culture dish. Plasmid DNA (10 μg) was added to 1 ml serum free DMEM media in a tube. Fugene 6 transfection reagent (30 μl) (Roche) was then pipetted slowly into the tube and the contents were gently mixed by inversion. The mixture was incubated at room temperature for 15 minutes and then added dropwise to cells in one 10 cm dish. […] Bioluminescence was then measured using a Veritas luminometer (Turner BioSystems). […]

[2] = test system: NF-κB dependent transcription; assay: In vivo basal NF-κB dependent transcription in NF-κB::Luc reporter mice, abdominal imaging; details: 300 mg/kg s.c., 4 hours post administration; p<0.01
From the text: GL1001 was further tested for in vivo anti-inflammatory activity by examining its effects on basal levels of NF-κB dependent transcription in mice engineered in the germline with a construct containing an NF-κB enhancer linked to a luciferase gene (i.e., NF-κB::Luc mice), such that this NF-κB reporter construct is present in all cells of the mice.
More particularly, transgenic NF-κB::Luc mice were generated using three NF-κB response elements from the Igκ light chain promoter fused to a firefly luciferase gene as described by Carlsen et al. (2002) J. Immunol. 168:1441-1446. Pronuclear microinjection of purified construct DNA was used to generate transgenic founders in the C57BL/6 XCBA/J background. Founders were subsequently back crossed to the C57BL/6 albino background. […] Signal data were also quantitated and archived using the Living Image® software. Photons of light were quantitated using an oval region of interest (ROI) of varying sizes depending on the procedure, as described further below.
To test for in vivo effects of GL1001 on basal levels of NF-κB dependent transcription, male NF-κB::Luc mice were subjected to quantitative in vivo imaging of the abdominal area (using a fixed ROI of 2.76×3.7 cm) as described above, immediately before, and at 2, […]

[3] = test system: activator protein-1 (AP-1); assay: Basal in vivo reporter luciferase expression in AP-1::Luc mice; details: data not shown
[4] = test system: NF-κB dependent transcription; assay: LPS-induced NF-κB dependent transcription in extracted organs of NF-κB::Luc mice (luciferase assay); type: in vivo; details: 30 mg/kg GL1001 + 0.5 mg/kg LPS vs LPS alone; stomach
From the text: For luciferase assays, organs were extracted and snap frozen in liquid nitrogen. All tissue samples were placed in lysis buffer with inhibitors (Passive Lysis Buffer (Promega) and Complete Mini Protease Inhibitor Cocktail (Roche, Indianapolis, Ind.)), and were homogenized using a tissue homogenizer (Handishear, Hand-held homogenizer, VirTis, Gardiner, N.Y.). Tissue homogenates were centrifuged and clarified lysates were used for luminometer assays and western blots. For the luminometer assays, Luciferase Assay Substrate (Luciferase Assay System, Promega) was prepared as indicated by the manufacturer and placed in disposable cuvettes. […] Background luminescence readings were obtained and the background readings were subtracted from the luminescent data. Protein concentrations were determined using the BCA Protein Assay Kit (Pierce, Rockford, Ill.) following the manufacturer's protocols and analyzed using a VERSAmax tuneable microplate reader and associated Softmax Pro version 3.1.2 software (Molecular Devices, Sunnyvale Calif.). The luminescence for each of the protein lysates was calculated as arbitrary units of light per microgram of protein. […]
GL1001 was further tested for in vivo anti-inflammatory activity by examining its effects on bacterial LPS induced NF-κB dependent transcription, in NF-κB::Luc mice. […] Luciferase signal was quantitated from several regions of interest. […]

[5] = test system: spontaneous CP in male WBN/Kob rats; details: Kuno et al. (2003); cited from earlier work
[6] = test system: acute pancreatitis induced by cerulein; details: Tsang et al. (2004); cited from earlier work

With `CC(C)C[C@H](N[C@@H](Cc1cncn1Cc1cc(Cl)cc(Cl)c1)C(=O)O)C(=O)O` [GL1001, (S,S)-2-[1-carboxy-2-[3-(3,5-dichlorobenzyl)-3H-imidazol-4-yl]-ethylamino]-4-methylpentanoic acid] the “inhibition of TNFα induced activation of NF-κB dependent transcription” value ([1]; at 8 nM) was “over 80%”, the “maximal inhibition of TNFα induced activation of NF-κB dependent transcription” value ([1]; at 0.2 μM) was “over 95%” and the “inhibition of basal in vivo NF-κB dependent transcription in abdominal ROI” value [2] was “over 40%”. For the same compound, the “effect on basal in vivo reporter luciferase expression” value [3] was “no significant effect” and the “reduction of LPS induced NF-κB-dependent transcription in stomachs” value [4] was “about 37 fold”.

In the case of `NCCCC[C@H](N[C@@H](CCc1ccccc1)C(=O)O)C(=O)N1CCC[C@H]1C(=O)O` [lisinopril], the “pancreatic fibrosis in animal model of CP” value [5] is given as “attenuated”.

In the case of `CCCCc1nc(Cl)c(CO)n1Cc1ccc(-c2ccccc2-c2nn[nH]n2)cc1` [losartan], the “severity of acute pancreatitis induced by cerulein” value [6] is listed as “markedly reduced”.
